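Following 48 hours of exposure in 96-well plates, responses at five concentrations were used to interpolate endpoints linearly. GI50 marks 50% less growth. Definition used: TGI = concentration required for complete inhibition of growth.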

Some test systems named below: NCI-H23 lung; HL-60(TB) leukemia; SF-268 CNS; UACC-257 melanoma; UACC-62 melanoma; SK-MEL-2 melanoma; 786-0 renal; OVCAR-8 ovarian; EKVX NSCLC; SF-539 CNS.
What all share (assay): NCI-60 cell line screen, 48 h

`NC(CSC(c1ccccc1)(c1ccccc1)c1ccc2ccccc2c1)C(=O)O` (centres undefined): the GI50 with NCI-H23 lung was 0.131 µM; with HL-60(TB) leukemia it was 0.0493 µM; in the experiment on SF-268 CNS, 0.0517 µM; in the experiment with UACC-257 melanoma it was 9.67 µM; in the experiment on UACC-62 melanoma, 0.0628 µM; with SK-MEL-2 melanoma, 1.29 µM. The GI50 with 786-0 renal was 0.0763 µM; with OVCAR-8 ovarian, 0.0804 µM; in the experiment on EKVX NSCLC it was 0.136 µM; in the experiment with SF-539 CNS, 0.0384 µM. In addition, the TGI in the experiment with NCI-H23 lung worked out at 16.4 µM; in the experiment with SF-268 CNS, 13.7 µM; in the experiment on UACC-257 melanoma it was 34.3 µM; with UACC-62 melanoma it was 13.6 µM; in the experiment on SK-MEL-2 melanoma, 30 µM; with 786-0 renal, 1.19 µM. Also, the figures for the TGI with OVCAR-8 ovarian, in the experiment on EKVX NSCLC and in the experiment on SF-539 CNS were 21.3 µM, 26.3 µM and 3.07 µM, respectively.
As to `CC1(C)OCN(c2ccc(Cl)cc2)Cn2c1nc1ccccc12`, the TGI with NCI-H23 lung is more than 100 µM; with HL-60(TB) leukemia, 47.8 µM; in the experiment with SF-268 CNS it was more than 100 µM; in the experiment on UACC-257 melanoma, more than 100 µM; in the experiment with UACC-62 melanoma, 5.58 µM; in the experiment on SK-MEL-2 melanoma, more than 100 µM. Moreover, the TGI in the experiment with 786-0 renal, with OVCAR-8 ovarian, in the experiment on EKVX NSCLC and with SF-539 CNS was more than 100 µM throughout.
On to `COc1cc2c(cc1C)n(O)c(C)c(C(=O)C/C(=N/NC(=O)C[N+](C)(C)C)C(=O)Nc1cccc(Cl)c1C)[n+]2=O`, for which the TGI with NCI-H23 lung, with HL-60(TB) leukemia, in the experiment with SF-268 CNS, in the experiment with UACC-257 melanoma, in the experiment with UACC-62 melanoma and with SK-MEL-2 melanoma was more than 100 µM each time. Further, the TGI with 786-0 renal, in the experiment on OVCAR-8 ovarian, in the experiment on EKVX NSCLC and with SF-539 CNS was more than 100 µM throughout.
In the case of `COc1ccc2c(c1)CC[C@@H]1C2CC[C@]2(C)C(=O)NC(=O)CC12` (some centres undefined), the TGI in the experiment on NCI-H23 lung, in the experiment on HL-60(TB) leukemia, in the experiment on SF-268 CNS, in the experiment with UACC-257 melanoma, in the experiment on UACC-62 melanoma and with SK-MEL-2 melanoma was more than 100 µM each time. The TGI in the experiment with 786-0 renal, with OVCAR-8 ovarian, with EKVX NSCLC and with SF-539 CNS was more than 100 µM throughout.
For `CCNCC(O)c1ccc(N)c([N+](=O)[O-])c1` (centres undefined), the TGI with NCI-H23 lung, with HL-60(TB) leukemia, in the experiment on SF-268 CNS, with UACC-257 melanoma, in the experiment with UACC-62 melanoma and with SK-MEL-2 melanoma was more than 100 µM throughout. Also, the TGI with 786-0 renal, in the experiment on OVCAR-8 ovarian, with EKVX NSCLC and in the experiment on SF-539 CNS was more than 100 µM each time.

(Values after PubChem BioAssay (NCI).)
